# Measurements reported in patent publication US20240116857A1 (St. Louis University, priority 2022, published 2024).
# Like-named read-outs stand apart in the source and are kept apart here.
# Columns and labels:
# [1] = test system: Pseudomonas aeruginosa PAO1; experiment: MIC, 2-fold broth dilution; assay type: cell-based; settings: WT
# Protocol: (§1) Luria-Bertani (LB) broth (10 g of Bacto tryptone, 5 g of yeast extract, and 5 g of NaCl per liter; pH 7.0) was used for bacterial growth. The bacterial strains were inoculated overnight at 37° C. Cells were 1:100 subcultured into a fresh 30-ml volume of LB medium and grown at 37° C. to an optical density at 600 nm (OD600) of 0.3. When appropriate, the cells cultures were supplemented with 0.1% L-arabinose or 0.1 mM isopropyl β-d-1-thiogalactopyranoside (IPTG), to induce expression of the “Pore” protein. The cells were cultured up to OD600 of 1.0. The test compounds were dissolved in dimethylsulfoxide (DMSO) to make the final 10 mM stock solution. The minimal inhibitory concentrations (MIC) were determined using the 2-fold broth dilution method (1). The OD600 was measured using a Tecan Spark 10 M microplate reader.
# [2] = test system: Klebsiella pneumoniae ATCC13883; experiment: MIC, 2-fold broth dilution; assay type: cell-based; settings: WT
# Protocol: as §1
# [3] = test system: Enterobacter cloacae ATCC13047; experiment: MIC, 2-fold broth dilution; assay type: cell-based; settings: WT
# Protocol: as §1
# [4] = test system: Klebsiella oxytoca ATCC700324; experiment: MIC, 2-fold broth dilution; assay type: cell-based; settings: WT
# Protocol: as §1
# [5] = test system: Klebsiella aerogenes ATCC13048; experiment: MIC, 2-fold broth dilution; assay type: cell-based; settings: WT
# Protocol: as §1
# [6] = test system: Acinetobacter baumannii ATCC17978; experiment: MIC, 2-fold broth dilution; assay type: cell-based; settings: WT
# Protocol: as §1
# [7] = test system: Pseudomonas aeruginosa MP 2019; experiment: MIC, 2-fold broth dilution; assay type: cell-based; settings: MP2019, WT, MDR
# [8] = test system: Acinetobacter baumannii ATCC17978 Δ3-Pore; experiment: MIC, permeabilized bacteria; assay type: cell-based
# [9] = test system: Acinetobacter baumannii Ab5075; experiment: MIC, 2-fold broth dilution; assay type: cell-based
# [10] = test system: Pseudomonas aeruginosa PAO1 Δ6-Pore; experiment: MIC, permeabilized bacteria; assay type: cell-based
# [11] = test system: Acinetobacter baumannii AYE ΔB ΔIJK; experiment: MIC, permeabilized bacteria; assay type: cell-based
# [12] = test system: Burkholderia thailandensis Δ2-Pore; experiment: microbe, parasite or virus in culture; assay type: cell-based
# [13] = test system: E. coli BW25113; experiment: MIC, 2-fold broth dilution, E. coli BW25113; assay type: cell-based, Escherichia coli; settings: Escherichia coli
# [14] = test system: Klebsiella oxytoca ATCC700324 Pore; experiment: MIC, permeabilized bacteria; assay type: cell-based
# [15] = test system: Pseudomonas aeruginosa 273; experiment: MIC, 2-fold broth dilution; assay type: cell-based; settings: WT, clinical non MDR
# [16] = test system: Staphylococcus aureus ATCC 25923; experiment: MIC, 2-fold broth dilution; assay type: cell-based; settings: ATCC25923, non MDR
# [17] = test system: Pseudomonas aeruginosa 515; experiment: MIC, 2-fold broth dilution; assay type: cell-based; settings: WT, clinical non MDR
# [18] = test system: Pseudomonas aeruginosa BAA 2108; experiment: MIC, 2-fold broth dilution; assay type: cell-based; settings: BAA2108
# [19] = test system: Yersinia pestis KIM6+; experiment: microbe, parasite or virus in culture; assay type: cell-based
# [20] = Cytotoxicity assay (CellTiter AQueous One Solution, MTS); assay type: cell-based; settings: human, HEK293 cells, 24 h incubation
# Protocol: Cytotoxicity of the compounds was evaluated using the CellTiter AQueous One Solution Cell Proliferation Assay (MTS; Promega) as previously described (2). HEK293 cells were incubated with a 2-fold serially diluted compounds for 24 h at 37° C. with 5% CO2, followed by addition of 20 μL of CellTiter AQueous and further incubated for 4 h at 37° C. The absorbance at 490 nm was recorded using a Tecan Spark 10 M plate reader. All measurements were done in three replicas. The growth curves were then fitted to a sigmoidal equation to determine the cytotoxicity concentration CC50.
# [21] = test system: Acinetobacter baumannii AYE; experiment: MIC, 2-fold broth dilution; assay type: cell-based
# [22] = test system: Staphylococcus aureus ATCC 700787; experiment: MIC, 2-fold broth dilution; assay type: cell-based; settings: ATCC700787
# [23] = test system: Burkholderia thailandensis; experiment: microbe, parasite or virus in culture; assay type: cell-based
# [24] = test system: Acinetobacter baumannii Ab5075 ΔIJK; experiment: MIC, permeabilized bacteria; assay type: cell-based
# [25] = test system: Pseudomonas aeruginosa 462; experiment: MIC, 2-fold broth dilution; assay type: cell-based; settings: WT, clinical non MDR
# [26] = E. coli BW25113, asterisk in column 1-10, read-out: MIC, μM 1-10
# [27] = E. coli BW25113, asterisk in column 10-50, read-out: MIC, μM 10-50
# [28] = E. coli BW25113, asterisk in column >50, read-out: MIC, μM >50
smiles,measurement,setting,value
"C[n+]1ccc(Nc2ccc(NC(=O)c3ccc(-c4ccc(C(=O)Nc5ccc(Nc6cc[n+](C)cc6)cc5)cc4)cc3)cc2)cc1 [Example 17, 4,4′-(((([1,1′-biphenyl]-4,4′-dicarbonyl)bis(azanediyl))bis(4,1-phenylene))bis(azanediyl))bis(1-methylpyridin-1-ium)]",MIC,[1],6.2 µM
same,MIC,[2],3.1 µM
same,MIC,[3],50 µM
same,MIC,[4],> 100 µM
same,MIC,[5],6.2 µM
same,MIC,[6],6.2 µM
same,MIC,[7],> 100 µM
same,MIC,[8],0.8 µM
same,MIC,[9],12.5 µM
same,MIC,[10],0.2 µM
same,MIC,[11],0.2 µM
same,MIC,[12],0.8 µM
same,MIC,"[13]; E. coli BW25113, asterisk in column <1, read-out: MIC, μM <1",< 1 µM
same,MIC,[14],> 100 µM
same,MIC,[15],12.5 µM
same,MIC,[16],0.8 µM
same,MIC,[17],> 100 µM
same,MIC,[18],> 100 µM
same,MIC,[19],100 µM
same,CC50 at 24 h,[20],> 1000 µM
same,MIC,[21],> 100 µM
same,MIC,[22],0.4 µM
same,MIC,[23],> 100 µM
same,MIC,[24],6.2 µM
same,MIC,[25],12.5 µM
"C[n+]1ccc(Nc2ccc(NC(=O)c3ccc(C(=O)Nc4ccc(Nc5cc[n+](C)cc5)cc4)c(Cl)c3)cc2)cc1 [Example 20, 4,4′-((((2-chloroterephthaloyl)bis(azanediyl))bis(4,1-phenylene))bis(azanediyl))bis(1-methylpyridin-1-ium)]",MIC,[1],25 µM
same,MIC,[2],12.5 µM
same,MIC,[3],12.5 µM
same,MIC,[4],25 µM
same,MIC,[5],12.5 µM
same,MIC,[6],3.1 µM
same,MIC,[7],12.5 µM
same,MIC,[8],0.8 µM
same,MIC,[9],25 µM
same,MIC,[10],0.2 µM
same,MIC,[11],0.2 µM
same,MIC,[12],6.2 µM
same,MIC,[13]; [26],1 to 10 µM
same,MIC,[14],25 µM
same,MIC,[15],12.5 µM
same,MIC,[16],0.8 µM
same,MIC,[17],25 µM
same,MIC,[18],> 100 µM
same,MIC,[19],1.6 µM
same,CC50 at 24 h,[20],> 1000 µM
same,MIC,[21],25 µM
same,MIC,[22],1.6 µM
same,MIC,[23],> 100 µM
same,MIC,[24],25 µM
same,MIC,[25],12.5 µM
"C[n+]1ccc(Nc2ccc(NC(=O)c3ccc(C(=O)Nc4ccc(Nc5cc[n+](C)cc5)cc4)c([N+](=O)[O-])c3)cc2)cc1 [Example 25, 4,4′-((((2-nitroterephthaloyl)bis(azanediyl))bis(4,1-phenylene))bis(azanediyl))bis(1-methylpyridin-1-ium)]",MIC,[13]; [26],1 to 10 µM
same,CC50 at 24 h,[20],350 µM
"C[n+]1ccc(Nc2ccc(NC(=O)c3ccc(C(=O)Nc4ccc(Nc5cc[n+](C)cc5)cc4)c(N)c3)cc2)cc1 [Example 30, 4,4′-((((2-aminoterephthaloyl)bis(azanediyl))bis(4,1-phenylene))bis(azanediyl))bis(1-methylpyridin-1-ium)]",MIC,[13]; [26],1 to 10 µM
same,CC50 at 24 h,[20],480 µM
"COc1cc(NC(=O)c2ccc(-c3ccc(C(=O)Nc4ccc([N+](C)(C)C)c(OC)c4)cc3)cc2)ccc1[N+](C)(C)C [Example 35, 4,4′-(([1,1′-biphenyl]-4,4′-dicarbonyl)bis(azanediyl))bis(2-methoxy-N,N,N-trimethylbenzenaminium)]",MIC,[13]; [27],10 to 50 µM
same,CC50 at 24 h,[20],650 µM
"C[N+](C)(C)c1ccc(NC(=O)c2ccc(-c3ccc(C(=O)Nc4ccc([N+](C)(C)C)c(Cl)c4)cc3)cc2)cc1Cl [Example 39, 4,4′-(([1,1′-biphenyl]-4,4′-dicarbonyl)bis(azanediyl))bis(2-chloro-N,N,N-trimethylbenzenaminium)]",MIC,[13]; [26],1 to 10 µM
same,CC50 at 24 h,[20],330 µM
"C[n+]1ccc(Nc2ccc(NC(=O)c3ccc(C(=O)Nc4ccc(Nc5cc[n+](C)cc5)cc4)c(OC(F)(F)F)c3)cc2)cc1 [Example 44, 4,4′-((((2-(trifluoromethoxy)terephthaloyl)bis(azanediyl))bis(4,1-phenylene))bis(azanediyl))bis(1-methylpyridin-1-ium)]",MIC,[1],25 µM
same,MIC,[2],25 µM
same,MIC,[3],25 µM
same,MIC,[4],100 µM
same,MIC,[5],50 µM
same,MIC,[6],3.1 µM
same,MIC,[7],25 µM
same,MIC,[8],0.4 µM
same,MIC,[9],25 µM
same,MIC,[10],0.4 µM
same,MIC,[11],0.1 µM
same,MIC,[12],6.2 µM
same,MIC,[13]; [26],1 to 10 µM
same,MIC,[14],50 µM
same,MIC,[15],25 µM
same,MIC,[16],0.4 µM
same,MIC,[17],50 µM
same,MIC,[18],100 µM
same,MIC,[19],1.6 µM
same,CC50 at 24 h,[20],290 µM
same,MIC,[21],25 µM
same,MIC,[22],0.2 µM
same,MIC,[23],> 100 µM
same,MIC,[24],12.5 µM
same,MIC,[25],50 µM
C[n+]1ccc(Nc2ccc(NC(=O)c3ccc(C(=O)Nc4ccc(Nc5cc[n+](C)cc5)cc4)c(C(F)(F)F)c3)cc2)cc1 [Example 47],MIC,[13]; [27],10 to 50 µM
same,CC50 at 24 h,[20],350 µM
CN(C)c1ccc(NC(=O)c2ccc(-c3ccc(C(=O)Nc4ccc(N(C)C)c([N+](=O)[O-])c4)cc3)c(S(C)(=O)=O)c2)cc1 [Example 140],MIC,[13]; [28],> 50 µM
CN(C)c1ccc(NC(=O)c2ccc(-c3ccc(C(=O)Nc4ccc(N(C)C)c([N+](=O)[O-])c4)cc3)cc2)cc1[N+](=O)[O-] [Example 141],MIC,"[13]; BW25113, read-out: MIC, μM >50",> 50 µM
CCCCCCCCc1cn(CCOCCOCCOCCNC(=O)CCCC[C@H]2SC[C@H]3NC(=O)N[C@H]32)nn1 [Example 142],MIC,[13]; [26],1 to 10 µM
CN(C)c1ccc(NC(=O)c2ccc(-c3ccc(C(=O)Nc4ccc(N5CCCCC5)c(F)c4)cc3)cc2)cc1F [Example 143],MIC,[13]; [26],1 to 10 µM
C[N+](C)(C)c1ccc(NC(=O)c2ccc(-c3ccc(C(=O)Nc4ccc([N+]5(C)CCCCC5)cc4)cc3)cc2)cc1 [Example 144],MIC,[13]; [28],> 50 µM
COc1cc(NC(=O)c2ccc(-c3ccc(C(=O)Nc4ccc([N+]5(C)CCCCC5)cc4)cc3)cc2)ccc1[N+](C)(C)C [Example 145],MIC,[13]; [28],> 50 µM
C[N+](C)(C)c1ccc(NC(=O)c2ccc(-c3ccc(C(=O)Nc4ccc([N+](C)(C)C)c([N+](=O)[O-])c4)cc3)c(S(C)(=O)=O)c2)cc1 [Example 146],MIC,[13]; [28],> 50 µM
C[N+](C)(C)c1ccc(NC(=O)c2ccc(-c3ccc(C(=O)Nc4ccc([N+](C)(C)C)c(N)c4)cc3)c(S(C)(=O)=O)c2)cc1 [Example 147],MIC,[13]; [28],> 50 µM
CN(C)c1ccc(NC(=O)c2ccc(-c3ccc(C(=O)Nc4ccc(N(C)C)c([N+](=O)[O-])c4)cc3C#N)cc2)cc1 [Example 148],MIC,[13]; [28],> 50 µM
CN(C)c1ccc(NC(=O)c2ccc(-c3ccc(C(=O)Nc4ccc(N(C)C)c(C#N)c4)cc3C#N)cc2)cc1 [Example 149],MIC,[13]; [28],> 50 µM
C[N+](C)(C)c1ccc(NC(=O)c2ccc(-c3ccc(C(=O)Nc4ccc([N+](C)(C)C)c(C#N)c4)cc3C#N)cc2)cc1 [Example 150],MIC,[13]; [28],> 50 µM
C[N+](C)(C)c1ccc(NC(=O)c2ccc(-c3ccc(C(=O)Nc4ccc([N+](C)(C)C)c(N)c4)cc3C#N)cc2)cc1 [Example 153],MIC,[13]; [26],1 to 10 µM
C[N+](C)(C)c1ccc(NC(=O)c2ccc(-c3ccc(C(=O)Nc4ccc([N+](C)(C)C)c([N+](=O)[O-])c4)cc3C#N)cc2)cc1 [Example 154],MIC,[13]; [28],> 50 µM
